Test results reported in patent USRE37781E1, “Substituted cyclic carbonyls and derivatives thereof useful as retroviral protease inhibitors” (DuPont Pharmaceuticals Company, priority 1991, dated 2002).
Converted amounts (≈) assume the structure as drawn. “And” between values parts separate entries of the source, which are not always exact repeats. Equal values may be shown once. Read-outs that look alike come from different tables or passages of the source.

Tests used:
[1] = target: single-chain tethered dimer of HIV protease (Human immunodeficiency virus 1, UniProt P04585); experiment: biochemical; assay type: biochemical
Protocol: HIV Protease Inhibition Assay—HPLC Method
Active protease was prepared as described therein by extraction with 67% acetic acid, dilution 33-fold with water, dialysis against water and then against a “refolding buffer” consisting of 20 mM MES, 1 mM dithiothreitol and 10% glycerol. Protease was stored as a stock preparation at 10 uM in refolding buffer.
Substrate: Peptide of sequence: aminobenzoyl-Ala-Thr-His-Gln-Val-Tyr-Phe(NO2)-Val-Arg-Lys-Ala containing p-nitrophenylalanine, was prepared by solid phase synthesis as previously described Cheng et al., op.cit. Stock solutions of 2 mM substrate were prepared in DMSO.
Inhibitory compounds were dissolved in sufficient DMSO to make 3 mM stock solutions. All further dilutions were prepared in “assay buffer”: 1M NaCl, 50 mM MES, pH 5.5, 1 mM EDTA, 1 mM DTT, […] glycerol.
Enzyme reaction: In a 2 ml screw-cap centrifuge tube were added 50 ul protease (final concentration 0.25 nM) and 0.1 ml inhibitory compound (final concentration […]). After 15 min preincubation at room temperature, the reaction was started with the addition of 0.05 ml substrate (final concentration 5 uM). Incubation was carried out at 30 C. for 1 hr. The reaction was stopped with 1 ml 0.1M ammonium hydroxide.
HPLC measurement of product formation: The product (aminobenzoyl-Ala-Thr-His-Gln-Val-Tyr) was separated from substrate on a Pharmacia MonoQ anion exchange column. The injection volume was 0.2 ml. The mobile phases were: A (20 mM trisHCl, pH 9.0, 0.02% sodium Azide, 10% acetonitrile), B (20 mM tris HCl, pH 9.0, 0.02% sodium azide, 0.5M ammonium formate, 10% acetonitrile). The mobile phases were pumped at 1 ml/min, with a gradient from 0 to 30% B in 5 min, 100% B for 4 min to wash the column, and a re-equilibration for 4 min. The retention time of the product was 3.6 min. Detection with a Shimadzu model RF535 fluorescence monitor was at 330 nm (excitation) and 430 (emission).

HIV-1 (RF) in MT-2 cells = experiment: microbe, parasite or virus in culture; assay type: cell-based
In short: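 HIV-1 laboratory strains (RF, MN, IIIB) grown in H9 cells in RPMI 1640 with 5% FCS; infections in MT-2 cells. Viral RNA quantified by hybridization with biotinylated gag/pol capture probes on streptavidin plates and alkaline phosphatase-conjugated reporter probes; BH10 gag-pol in vitro transcripts serve as RNA standards.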

[2] = Human immunodeficiency virus 1, MT2, HIV RNA assay, HIV-1 infected MT-2 cells, class symbols, read-out: IC90
[3] = HIV protease inhibition, class symbols, read-out: Ki
[4] = HIV RNA assay, HIV-1 infected MT-2 cells, class symbols

SMILES	Ki [1] [nM]	melting point	IC90 (HIV-1 (RF) in MT-2 cells; [2]) [µg/mL]	IC90 (HIV-1 (RF) in MT-2 cells; Human immunodeficiency virus 1, MT2) [µg/mL]	Ki [1, 3] [nM]	IC90 (HIV-1 (RF) in MT-2 cells; [4])
O=C1N(Cc2ccccc2)C(Cc2ccccc2)C(O)C(O)C(Cc2ccccc2)N1Cc1ccc2ccccc2c1 (stereo not shown) [Example 4M]	< 10	90 to 92 °C	< 10	–	–	–
O=Cc1ccc(CN2C(=O)N(Cc3ccc(C=O)cc3)C(Cc3ccccc3)C(O)C(O)C2Cc2ccccc2)cc1 (stereo not shown) [Example 5X]	< 10	90 to 91 °C	< 10	–	–	–
O=C1N(Cc2cc(Cl)cc(Cl)c2)C(Cc2ccccc2)C(O)C(O)C(Cc2ccccc2)N1Cc1cc(Cl)cc(Cl)c1 (stereo not shown) [Example 6ZJ]	10 to 1000	231.1 °C	10 to 100 (≈ 15.5 to 155 µM)	–	–	–
O=C1N(Cc2cccc(Br)c2)C(Cc2ccccc2)C(O)C(O)C(Cc2ccccc2)N1Cc1cccc(Br)c1 (stereo not shown) [Example 6ZE]	< 10	210.7 °C	< 10	–	–	–
O=C1N(Cc2cc(F)cc(F)c2)C(Cc2ccccc2)C(O)C(O)C(Cc2ccccc2)N1Cc1cc(F)cc(F)c1 (stereo not shown) [Example 6ZC]	10 to 1000	167.9 °C	10 to 100 (≈ 17.3 to 173 µM)	–	–	–
O=C1c2ccccc2C(O)C(O)c2ccccc21 (stereo not shown) [Example 26A, 5H-dibenzo [A,D] cyclohepten-5-one-10,11-dihydro-10, 11-diol]	> 1000	107.5 to 108 °C and 107.5 to 107.9 °C	–	–	–	–
CCOc1cccc(CN2C(=O)N(Cc3cccc(OCC)c3)C(Cc3ccccc3)C(O)C(O)C2Cc2ccccc2)c1 (stereo not shown) [Example 5N]	10 to 1000	185 to 186 °C	> 100	–	–	–
CC(C)=CCN1C(=O)N(Cc2ccccc2)C(Cc2ccccc2)C(O)C(O)C1Cc1ccccc1 (stereo not shown) [Example 3Y]	< 10	173 to 174 °C	< 10	–	–	–
C=CCN1C(=O)NC(Cc2ccccc2)C(O)C(O)C1Cc1ccccc1 (stereo not shown) [Example 5A]	> 1000	180 to 182 °C	–	–	–	–
O=C1N(Cc2cccc([N+](=O)[O-])c2)C(Cc2ccccc2)C(O)C(O)C(Cc2ccccc2)N1Cc1cccc([N+](=O)[O-])c1 (stereo not shown) [Example 6Z]	< 10	248.3 °C	–	< 10	–	–
O=C1N(Cc2ccc3ccccc3c2)C(Cc2ccccc2)C(O)C(O)C(Cc2ccccc2)N1CC1CC1 (stereo not shown) [Example 4K]	< 10	175 to 178 °C	< 10	–	–	–
O=C1N(Cc2ccccc2)C(Cc2ccccc2)C(O)C(O)C(Cc2ccccc2)N1Cc1ccncc1 (stereo not shown) [Example 4B]	< 10	–	< 10	–	–	–
CN(C)CCN1C(=O)N(CCN(C)C)C(Cc2ccccc2)C(O)C(O)C1Cc1ccccc1 (stereo not shown) [Example 6R]	> 1000	–	> 100	–	–	–
COc1ccc(CN2C(=O)N(Cc3ccc(OC)cc3)C(Cc3ccccc3)C(O)C(O)C2Cc2ccccc2)cc1 (stereo not shown) [Example 6M]	–	–	–	–	10 to 1000	+++ (+++=<10 μg/mL)
Cc1cccc(CN2C(=O)N(Cc3cccc(C)c3)C(Cc3ccccc3)C(O)C(O)C2Cc2ccccc2)c1 (stereo not shown) [Example 6ZA]	< 10	–	< 10	–	–	–
O=C1N(Cc2ccc(O)c(O)c2)C(Cc2ccccc2)C(O)C(O)C(Cc2ccccc2)N1Cc1ccc(O)c(O)c1 (stereo not shown) [Example 6ZQ]	< 10	–	< 10	–	–	–
O=C1N(Cc2ccccn2)C(Cc2ccccc2)C(O)C(O)C(Cc2ccccc2)N1CC1CC1 (stereo not shown) [Example 4N]	–	–	–	–	< 10	+++ (+++=<10 μg/mL)
Nc1cccc(CN2C(=O)N(Cc3cccc(N)c3)C(Cc3ccccc3)C(O)C(O)C2Cc2ccccc2)c1 (stereo not shown) [Example 6ZI]	< 10	–	< 10	–	–	–
O=C1N(Cc2ccccc2Cl)C(Cc2ccccc2)C(O)C(O)C(Cc2ccccc2)N1Cc1ccccc1Cl (stereo not shown) [Example 6ZD]	10 to 1000	–	< 10	–	–	–
COc1cccc(CN2C(=O)N(Cc3cccc(OC)c3)C(Cc3ccccc3)C(O)C(O)C2Cc2ccccc2)c1 (stereo not shown) [Example 6Q]	< 10	–	< 10	–	–	–
CCCN1C(=O)N(Cc2ccccc2)C(Cc2ccccc2)C(O)C(O)C1Cc1ccccc1 (stereo not shown) [Example 4G]	< 10	–	< 10	–	–	–
[2H]c1c([2H])c([2H])c(C([2H])([2H])N2C(=O)N(C([2H])([2H])c3c([2H])c([2H])c([2H])c([2H])c3[2H])C(Cc3ccccc3)C(O)C(O)C2Cc2ccccc2)c([2H])c1[2H] (stereo not shown) [Example 4H]	< 10	–	< 10	–	–	–
O=C1N(Cc2cccc(OCc3ccccc3)c2)C(Cc2ccccc2)C(O)C(O)C(Cc2ccccc2)N1Cc1cccc(OCc2ccccc2)c1 (stereo not shown) [Example 5F]	10 to 1000	165 to 166 °C	–	–	–	–
